Results from ChEMBL document CHEMBL5727726, “Pyridine sulfonamides” (2020).

Experiment: Nav 1.7In Vitro PX Assay: HEK 293 cells stably transfected with human Nav1.7 were recorded in whole cell voltage clamp mode with the PatchXpress automated electrophysiology system (Molecular Devices, LLC, Sunnyvale, Calif.). Compound effects were measured on a partially inactivated state of the sodium channel. Cells were clamped to a holding potential yielding 20 to 50% inactivation. To elicit sodium current, channels were activated by pulsing to −10 mV for 20 msec. This voltage protocol was repeated at a rate of 0.1 Hz throughout the experiment. A single concentration of test compound was applied to cells for a duration of 3 minutes. Peak sodium current was measured at the end of the compound addition period to determine percent inhibition. Three to five cells were tested per concentration, and IC50 curves were fitted to percent inhibition as a function of concentration.
Settings: HEK293

IC50 [nM]	Compound
28	CNC(=O)N(c1ccc(S(=O)(=O)Nc2ccon2)cn1)c1cc(Cl)c(-c2cc(F)cc(Cl)c2)cc1OC
86	CNC(=O)N(c1ccc(S(=O)(=O)Nc2ccon2)cn1)c1cc(F)c(-c2cc(F)c(F)c(F)c2)cc1OC
